{
  "source": "paper PMC7370187",
  "about": "“Screening of an Epigenetic Drug Library Identifies 4-((hydroxyamino)carbonyl)-N-(2-hydroxyethyl)-N-Phenyl-Benzeneacetamide that Reduces Melanin Synthesis by Inhibiting Tyrosinase Activity Independently of Epigenetic Mechanisms” (International Journal of Molecular Sciences, 2020)",
  "key": {"human TYR [1]": {"target": "T1, human TYR (Homo sapiens, UniProt P14679)", "T1 construct": "expressed in transfected cells; Triton X-100 lysate supernatant", "T1 sequence (P14679 19-529)": "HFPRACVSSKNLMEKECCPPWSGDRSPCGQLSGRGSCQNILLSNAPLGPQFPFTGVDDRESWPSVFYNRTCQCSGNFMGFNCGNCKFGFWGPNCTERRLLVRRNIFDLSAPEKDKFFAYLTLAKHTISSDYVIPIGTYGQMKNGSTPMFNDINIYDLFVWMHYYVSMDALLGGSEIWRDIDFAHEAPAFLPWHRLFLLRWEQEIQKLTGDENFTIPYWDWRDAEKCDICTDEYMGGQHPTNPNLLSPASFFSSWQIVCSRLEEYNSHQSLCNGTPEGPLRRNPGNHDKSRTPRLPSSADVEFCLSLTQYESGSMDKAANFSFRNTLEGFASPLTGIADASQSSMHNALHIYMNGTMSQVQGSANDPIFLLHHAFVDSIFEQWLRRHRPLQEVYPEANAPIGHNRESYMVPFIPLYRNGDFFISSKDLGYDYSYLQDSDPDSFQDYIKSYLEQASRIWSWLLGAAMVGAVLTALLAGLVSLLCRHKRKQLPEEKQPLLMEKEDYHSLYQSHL", "test": "In vitro TYR catalytic activity assay, lysate of HEK293-TYR cells", "type": "biochemical", "details": "each drug at 1.0 μM, library screening", "experimental": "(§1) To examine the direct effect of a drug on the catalytic activity of TYR, in vitro experiments were undertaken. Lysate of B16F10 cells stimulated with α-MSH for 24 h was used as a murine TYR preparation. Human TYR preparation was the lysate of human embryonic kidney 293 cells constitutively expressing human TYR (HEK293-TYR). […] The TYR activity assay mixture (200 μL) consisted of 100 mM sodium phosphate buffer (pH 6.8), TYR preparation (40 μg protein), a drug at various concentrations, 1.0 mM L-tyrosine, and 42 μΜ L-DOPA. For enzyme kinetic study, the concentrations of L-tyrosine plus L-DOPA were varied while their relative ratio was kept the same as the standard assay condition. […] The reactions were also performed in the absence of a TYR preparation to correct for the effects of non-enzymatic reactions. Enzyme activity was calculated as follows: activity (% control) = (C−D)/(A−B) × 100, where A and B are the absorbance changes of the control group with and without enzyme, respectively, while C and D are the absorbance changes of the test group with and without enzyme, respectively."}, "[2]": {"system": "B16-F10 murine melanoma cells", "test": "Screening assay for overall melanin synthesis (OD 400 nm) in α-MSH-stimulated cells", "type": "cell-based", "details": "100 nM α-MSH, 72 h; for relative melanin synthesis (OD 400 nm): drug 1.0 μM", "experimental": "For the screening assay, B16-F10 cells were plated in 96-well plates (3 × 10^3 cells per well) and cultured for 24 h. The cells were then treated with a test drug at 1.0 μM for 60 min, and subsequently stimulated with 0.1 μM α-MSH for 72 h. Overall melanin synthesis was estimated by measuring the absorbance of each well (cells plus medium, without cell lysis) at 400 nm using a Spectrostar Nano microplate reader (BMG LABTECH GmbH, Ortenberg, Germany)."}, "B16-F10 cells": {"system": "B16-F10 cells", "test": "Cell viability assay (MTT)", "type": "cell-based, murine", "details": "48 h; for relative viability: drug 1.0 μM", "experimental": "Cell viability was evaluated using 3-(4,5-dimethylthiazol-2-yl)-2,5-diphenyltetrazolium bromide (MTT). After treatment of B16-F10 cells with each drug for 48 h, cells were washed with phosphate-buffered saline (PBS) and incubated for 2 h in the culture medium containing 1 mg∙mL^−1 MTT (Amresco, Solon, OH, USA). The medium was discarded by aspiration, the formazan dye deposited inside the cells was extracted with isopropanol, and absorbance was measured at 595 nm using a Spectrostar Nano microplate reader."}, "[3]": {"test": "Copper chelating activity assay (pyrocatechol violet)", "type": "physicochemical", "details": "200 μM test compound, 200 μM copper ions, 200 μM pyrocatechol violet, absorbance 632 nm", "experimental": "Copper chelating activity was determined by using pyrocatechol violet (Sigma-Aldrich). […] The reaction mixture containing a potential chelator at varied concentrations, 200 μM CuSO4, and 200 μM pyrocatechol violet was incubated at 25 °C for 20 min, and its absorption spectra were recorded using a Shimadzu UV-1650PC spectrophotometer (Shimadzu Corporation, Kyoto, Japan). Copper chelating activity was evaluated by the change in the absorbance of pyrocatechol violet at 632 nm."}, "[4]": {"system": "cellular melanin production", "parameters": "method as in earlier work", "details": "ref [55] Baek et al.; cited from earlier work"}, "human TYR [5]": {"target": "T1, human TYR", "parameters": "method as in PMID 31382682, PMID 23476698, PMID 26914711", "details": "HEK293-TYR; ref [43],[45],[47]; cited from earlier work"}, "mushroom TYR": {"system": "mushroom TYR", "parameters": "method as in earlier work", "details": "ref [55] Baek et al.; read-out: IC50, catalytic activity of mushroom TYR in vitro; cited from earlier work"}, "murine TYR": {"target": "T2, murine TYR (Mus musculus, UniProt P11344)", "T2 construct": "One is the protein extract of B16F10 cells stimulated by α-MSH and thus expresses a high amount of TYR; endogenous in cells; host or cells: B16F10 murine melanoma cells stimulated with α-MSH for 24 h; Triton X-100 lysate supernatant", "T2 sequence (P11344 19-533)": "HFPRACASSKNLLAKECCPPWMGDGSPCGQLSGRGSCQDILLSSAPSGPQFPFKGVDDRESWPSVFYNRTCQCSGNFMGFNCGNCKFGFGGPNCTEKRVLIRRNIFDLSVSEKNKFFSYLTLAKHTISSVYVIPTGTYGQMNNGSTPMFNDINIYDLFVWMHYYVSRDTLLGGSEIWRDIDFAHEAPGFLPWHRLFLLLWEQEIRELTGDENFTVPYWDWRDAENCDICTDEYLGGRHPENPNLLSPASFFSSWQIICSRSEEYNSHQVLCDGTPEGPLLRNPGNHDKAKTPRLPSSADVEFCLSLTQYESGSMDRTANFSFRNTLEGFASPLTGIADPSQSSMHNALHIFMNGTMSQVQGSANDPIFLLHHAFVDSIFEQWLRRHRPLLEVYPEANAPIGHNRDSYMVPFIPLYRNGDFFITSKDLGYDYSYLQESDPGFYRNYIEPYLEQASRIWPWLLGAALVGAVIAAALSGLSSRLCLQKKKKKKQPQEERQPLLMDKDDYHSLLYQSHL", "test": "In vitro TYR catalytic activity assay, lysate of α-MSH-stimulated B16F10 cells", "type": "biochemical", "details": "murine TYR, varying substrate concentrations", "experimental": "as §1"}, "TYR": {"system": "TYR", "test": "In vitro TYR catalytic activity, murine and human TYR given together (abstract)", "type": "biochemical", "details": "range over human and murine TYR preparations", "experimental": "as §1"}},
  "note": "Entries after “also recorded” stand apart in the source; their conditions may differ.",
  "data": [
    {"compound": "O=C(C=Cc1cccc(C(=O)NO)c1)NO", "note": "[H4, N-hydroxy-3-(3-(hydroxyamino)-3-oxo-1-propen-1-yl)-benzamide]", "values": [
      {"measurement": "human TYR inhibitory effect", "setting": "human TYR [1]", "value": "potent TYR inhibitory effects"},
      {"measurement": "relative melanin synthesis (OD 400 nm)", "setting": "[2]", "value": "markedly inhibited cellular melanin synthesis"},
      {"measurement": "melanin synthesis (OD 400)", "setting": "[2]; drug at varied concentrations", "value": "attenuated by both drugs in a dose-dependent manner"},
      {"measurement": "relative viability", "setting": "B16-F10 cells", "value": "without reducing cell viability"},
      {"measurement": "cytotoxicity (relative viability)", "setting": "B16-F10 cells; drug at various concentrations", "value": "showed toxicity at 3 μM and higher concentrations"}
    ]},
    {"compound": "O=c1cc(CO)occ1O", "note": "[kojic acid]", "values": [
      {"measurement": "copper ions chelated", "setting": "[3]", "value": 36, "unit": "%"},
      {"measurement": "IC50", "setting": "[4]", "value": 2000, "unit": "µM"}
    ]},
    {"compound": "O=c1cc(-c2ccc(O)c(O)c2)oc2cc(OS(=O)(=O)O)cc(O)c12", "note": "[luteolin 7-sulfate]", "values": [
      {"measurement": "IC50", "setting": "human TYR [5]", "value": 8.2, "unit": "µM"}
    ]},
    {"compound": "O=C(NO)c1ccc(NC(=O)C23CC4CC(CC(C4)C2)C3)cc1", "note": "[1a, 4-(Adamantanecarboxamido)-N-hydroxybenzamide]", "values": [
      {"measurement": "IC50", "setting": "[4]", "value": 3.78, "unit": "µM"},
      {"measurement": "IC50", "setting": "mushroom TYR", "value": 12, "unit": "µM"}
    ]},
    {"compound": "CCN(CC)Cc1ccc2cc(COC(=O)Nc3ccc(C(=O)NO)cc3)ccc2c1.Cl.O", "note": "[C10, (6-((diethylamino)methyl)naphthalen-2-yl)methyl (4-(hydroxycarbamoyl)phenyl)carbamate hydrochloride hydrate]", "values": [
      {"measurement": "human TYR inhibitory effect", "setting": "human TYR [1]", "value": "potent TYR inhibitory effects; also recorded: showed excellent inhibitory action"}
    ]},
    {"compound": "COc1ccc(Cn2ccc3ccc(C(=O)NO)cc32)cc1", "note": "[A5, N-Hydroxy-1-((4-methoxyphenyl)methyl)-1H-indole-6-carboxamide]", "values": [
      {"measurement": "human TYR inhibitory effect", "setting": "human TYR [1]", "value": "potent TYR inhibitory effects; also recorded: showed excellent inhibitory action"},
      {"measurement": "relative melanin synthesis (OD 400 nm)", "setting": "[2]", "value": "showed no melanin inhibitory action"}
    ]},
    {"compound": "Cn1c(C=CC(=O)NO)ccc1C=CC(=O)c1cccc(F)c1", "note": "[M3, 3-(5-(3-(3-Fluorophenyl)-3-oxopropen-1-yl)-1-methyl-1H-pyrrol-2-yl)-N-hydroxy-2-propenamide]", "values": [
      {"measurement": "human TYR inhibitory effect", "setting": "human TYR [1]", "value": "potent TYR inhibitory effects; also recorded: showed excellent inhibitory action"},
      {"measurement": "relative melanin synthesis (OD 400 nm)", "setting": "[2]", "value": "showed no melanin inhibitory action"}
    ]},
    {"compound": "COc1cc2c(NC3CCN(C(C)C)CC3)nc(C3CCCCC3)nc2cc1OCCCN1CCCC1", "note": "[C3, UNC0638]", "values": [
      {"measurement": "relative viability", "setting": "B16-F10 cells", "value": "showed strong cytotoxicity"}
    ]},
    {"compound": "OC[C@H]1O[C@@H](Oc2ccc(O)cc2)[C@H](O)[C@@H](O)[C@@H]1O", "note": "[β-arbutin, 4-hydroxyphenyl-β-D-glucopyranoside]", "values": [
      {"measurement": "copper ions chelated", "setting": "[3]", "value": "did not show copper chelating activity"},
      {"measurement": "inhibition type (Lineweaver–Burk plots)", "setting": "murine TYR", "value": "competitive inhibition"},
      {"measurement": "IC50", "setting": "TYR", "value": "500 to 700", "unit": "µM"}
    ]},
    {"compound": "O=C(O)/C=C/c1ccc(O)cc1", "note": "[p-coumaric acid]", "values": [
      {"measurement": "IC50", "setting": "human TYR [5]", "value": 4, "unit": "µM"}
    ]},
    {"compound": "O=C(NO)c1ccc(C(=O)NC23CC4CC(CC(C4)C2)C3)cc1", "note": "[1b, N1-Adamantyl-N4-hydroxyterephthal amide]", "values": [
      {"measurement": "IC50", "setting": "[4]", "value": 7.46, "unit": "µM"},
      {"measurement": "IC50", "setting": "mushroom TYR", "value": 8.99, "unit": "µM"}
    ]}
  ]
}
